Data on four compounds can be found in US7691416B2, “Methods of treating vascular disease” (priority 2002, dated 2010).

In one data set the test system is p38 MAPK. Put plainly: Western blot of phosphorylated p38 MAPK in SMC. The data set is classed as cell-based, mouse. The text has this: Animals. Male (250-350 g) Brown Norway rats (RT1^n) were used as aortic graft donors and male (250-350 g) Lewis rats (RT11) as recipients. Dawley (400-450 g) rats were used in the balloon injury model. Adult male C57BL/6, C57/S129, p21^−/− and p53^−/− null mice were purchased from Jackson Laboratory (Bar Harbor, Me.). mkk3^(−/−) null mice were generated as described Lu et al. (EMBO. 18:1845-1857 (1999)). The inos^−/− and enos^−/− mice were bred at the University of Pittsburgh. Aortic transplant model. Aortic transplantation was performed as described in Shimizu et al. (Nat. Med. 7:738-741 (2001)). Briefly, 3 to 4 cm of descending aorta was harvested from the donor and implanted between the renal arteries and the aortic bifurcation of the recipient. Both edges of the native abdominal aorta were ligated. Balloon injury model. Balloon angioplasty was carried out as described in Murakami et al. (Atherosclerosis 157:361-368 (2001)). Briefly, a 2 Fr. arterial embolectomy catheter (Baxter, Chicago, Ill.) was inserted into the common carotid artery, and injury was created by inflating the balloon to 5 atmospheres of pressure for 5 minutes. The arteries were flushed and the external carotid artery was ligated, ensuring return of blood flow through the common and internal carotid arteries. Injury of the vessel wall and subsequent pathological analysis was made in a manner that was blinded to the treatment group. CO exposure. CO was delivered to animals as described in Otterbein et al. (Nat. Med. 6:422-428 (2000)). Graft donors and recipients were exposed to CO (250 ppm) for two days before transplantation and for 56 days immediately following transplantation. In the balloon injury model, rats received either no pretreatment or were exposed to CO (250 ppm) for one hour prior to injury. Following surgery rats were housed in room air for two weeks. Cells. Primary mouse and rat smooth muscle cells (SMC) were isolated and cultured as described in Laubach et al. (Proc Natl Acad Sci USA 92:10688-9 (1995)). Mouse SMC isolated from HO-1^−/− mice were obtained as described in Duckers et al. (Nat. Med. 7:693-698 (2001)). Cell treatment and reagents. Guanylate cyclase inhibitor 1H(1,2,4) oxadiazolo(4,3-a)quinoxalin-1 (ODQ; Calbiochem-Novabiochem, San Diego, Calif.; 10-100 μM) and p38 MAPK inhibitor pyridinyl imidazol SB203580 (Calbiochem; 5-20 μM) were dissolved in DMSO. […] [^3H]thymidine incorporation was measured by scintillation spectroscopy and presented as mean counts/min/well. […] Areas from eight to ten captured images were calculated using digital imaging software as number of pixels corresponding to those areas. Twenty-four to forty-eight sections from each group were statistically analyzed with SPSS software version 10. […]
(In general: Immunoblotting shows a protein as a band on a membrane.)

The next data set relates to mouse SMC. Put plainly: SMC proliferation, [3H]thymidine incorporation. The class given is cell-based. An excerpt:
(§1) Animals. Male (250-350 g) Brown Norway rats (RT1^n) were used as aortic graft donors and male (250-350 g) Lewis rats (RT11) as recipients. Dawley (400-450 g) rats were used in the balloon injury model. Adult male C57BL/6, C57/S129, p21^−/− and p53^−/− null mice were purchased from Jackson Laboratory (Bar Harbor, Me.). mkk3^(−/−) null mice were generated as described Lu et al. (EMBO. 18:1845-1857 (1999)). The inos^−/− and enos^−/− mice were bred at the University of Pittsburgh. Aortic transplant model. Aortic transplantation was performed as described in Shimizu et al. (Nat. Med. 7:738-741 (2001)). Briefly, 3 to 4 cm of descending aorta was harvested from the donor and implanted between the renal arteries and the aortic bifurcation of the recipient. Both edges of the native abdominal aorta were ligated. Balloon injury model. Balloon angioplasty was carried out as described in Murakami et al. (Atherosclerosis 157:361-368 (2001)). Briefly, a 2 Fr. arterial embolectomy catheter (Baxter, Chicago, Ill.) was inserted into the common carotid artery, and injury was created by inflating the balloon to 5 atmospheres of pressure for 5 minutes. The arteries were flushed and the external carotid artery was ligated, ensuring return of blood flow through the common and internal carotid arteries. Injury of the vessel wall and subsequent pathological analysis was made in a manner that was blinded to the treatment group. CO exposure. CO was delivered to animals as described in Otterbein et al. (Nat. Med. 6:422-428 (2000)). Graft donors and recipients were exposed to CO (250 ppm) for two days before transplantation and for 56 days immediately following transplantation. In the balloon injury model, rats received either no pretreatment or were exposed to CO (250 ppm) for one hour prior to injury. Following surgery rats were housed in room air for two weeks. Cells. Primary mouse and rat smooth muscle cells (SMC) were isolated and cultured as described in Laubach et al. (Proc Natl Acad Sci USA 92:10688-9 (1995)). Mouse SMC isolated from HO-1^−/− mice were obtained as described in Duckers et al. (Nat. Med. 7:693-698 (2001)). Cell treatment and reagents. Guanylate cyclase inhibitor 1H(1,2,4) oxadiazolo(4,3-a)quinoxalin-1 (ODQ; Calbiochem-Novabiochem, San Diego, Calif.; 10-100 μM) and p38 MAPK inhibitor pyridinyl imidazol SB203580 (Calbiochem; 5-20 μM) were dissolved in DMSO. The cGMP analogue 8-bromo-cGMP sodium salt (8-Br-cGMP; Sigma-Aldrich, St. Louis, Mo.; 10-100 μM) and the PKG inhibitor (10-100 μM; Alexis Biochemicals) were dissolved in water. Cell counts and [^3H] thymidine incorporation. Rat and mouse SMC were isolated and cultured as described in Peyton et al. (Blood 99:4443-4448 (2002)). Proliferation assays were carried out as described in Petkova et al. (J Biol. Chem. 276:7932-7936 (2001)). For [^3H] thymidine incorporation studies, cells were serum-starved overnight and then stimulated with 10% serum containing 5 μCi/ml [^3H] thymidine (New England Nuclear, Boston Mass.). [^3H]thymidine incorporation was measured by scintillation spectroscopy and presented as mean counts/min/well. Histomorphometric analysis. Aortic grafts and carotid arteries were harvested at 56 and 14 days respectively. Vessels were fixed, embedded, and serially sectioned (5μ) in toto. Every third slide was stained with Hematoxylin and Eosin (H&E) for histomorphometric analyses. In both models, one or two images per slide at a resolution of 1520×1080 pixels were captured at a magnification of 25× with a Zeiss microscope (Axioskop, Iowa City, Iowa), RT color SPOT (Diagnostic Instrument, Inc., Saint Joseph, Mich.) and Windows NT (Compaq Computer) using Adobe Photoshop version 5.5 software. Areas from eight to ten captured images were calculated using digital imaging software as number of pixels corresponding to those areas. Twenty-four to forty-eight sections from each group were statistically analyzed with SPSS software version 10. Immunostaining and cell population histomorphometric analysis. […]
On the technique in general: Dividing cells build labelled thymidine or BrdU into new DNA.

The next data set concerns p21Cip1. Put plainly: Western blot of p21Cip1 expression. The data set is classed as cell-based, mouse.
Excerpt: as §1

Data set [1] in a line: Nitric oxide exposure of rats before balloon angioplasty. The note with it: NO administered at 500 ppm, 1 hour. The class given is in vivo, rat. An excerpt: (§2) Animals. Male (250-350 g) Brown Norway rats (RT1^n) were used as aortic graft donors and male (250-350 g) Lewis rats (RT11) as recipients. Dawley (400-450 g) rats were used in the balloon injury model. Adult male C57BL/6, C57/S129, p21^−/− and p53^−/− null mice were purchased from Jackson Laboratory (Bar Harbor, Me.). mkk3^(−/−) null mice were generated as described Lu et al. (EMBO. 18:1845-1857 (1999)). The inos^−/− and enos^−/− mice were bred at the University of Pittsburgh. Aortic transplant model. Aortic transplantation was performed as described in Shimizu et al. (Nat. Med. 7:738-741 (2001)). Briefly, 3 to 4 cm of descending aorta was harvested from the donor and implanted between the renal arteries and the aortic bifurcation of the recipient. Both edges of the native abdominal aorta were ligated. Balloon injury model. Balloon angioplasty was carried out as described in Murakami et al. (Atherosclerosis 157:361-368 (2001)). […] [^3H]thymidine incorporation was measured by scintillation spectroscopy and presented as mean counts/min/well. […] Areas from eight to ten captured images were calculated using digital imaging software as number of pixels corresponding to those areas. Twenty-four to forty-eight sections from each group were statistically analyzed with SPSS software version 10. […]

The test system of data set [2] is intimal hyperplasia after balloon injury of the carotid artery. Description: Balloon injury model of the carotid artery. The class given is in vivo, rat. The note with it: NO 250 ppm; one hour pre-treatment.
Excerpt: as §2

In the case of `O=c1onc2cnc3ccccc3n12` [ODQ, 1H(1,2,4) oxadiazolo(4,3-a)quinoxalin-1, reference compound], the “Activation of p38 MAPK by CO when cGMP generation is blocked” value with p38 MAPK (CO plus ODQ) was “abolished”. Besides, the “Ability of CO to suppress SMC proliferation under guanylate cyclase inhibition” value with mouse SMC (CO 250 ppm plus ODQ) was “impaired”. The “Ability of CO to up-regulate p21Cip1 expression under guanylate cyclase inhibition” value in the data set with p21Cip1 (CO plus ODQ) is “impaired”.
On to `C[S+]([O-])c1ccc(-c2nc(-c3ccncc3)c(-c3ccc(F)cc3)[nH]2)cc1` (centres unmarked) [SB203580, reference compound], for which, in the data set with mouse SMC (8Br-cGMP plus SB203580), the “Anti-proliferative effect of 8Br-cGMP in presence of p38 MAPK inhibitor” value is given as “abrogated”. Besides, the “Anti-proliferative effect of CO in presence of p38 MAPK inhibitor” value with mouse SMC (CO 250 ppm plus SB203580) was “suppressed”. Further, in the data set with mouse SMC (SMC from p21-/- mice, CO 250 ppm plus SB203580), the “Effects of CO on proliferation in presence of p38 MAPK inhibitor” value is “did not modulate”. Besides, the “Ability of 8Br-cGMP to up-regulate expression of p21Cip1 in presence of p38 MAPK inhibitor” value in the data set on p21Cip1 (8Br-cGMP plus SB203580) is listed as “suppressed”. In addition, in the data set on p21Cip1 (CO 250 ppm plus SB203580), the “Ability of CO to up-regulate expression of p21Cip1 in presence of p38 MAPK inhibitor” value is listed as “blocked”.
As for `[N]=O` [NO, Nitric Oxide, reference compound], the Lethality entry in data set [1] is “lethal”. For the same compound, the “Intimal thickening triggered by balloon injury” value in data set [2] is on record as “did not modulate”.
Turning to `Nc1nc2c(nc(Br)n2[C@@H]2O[C@@H]3COP(=O)([O-])O[C@H]3[C@H]2O)c(=O)[nH]1.[Na+]` [8-Br-cGMP, 8-Bromoguanosine 3′-5′-cyclic monophosphate sodium salt, reference compound], the “p38 MAPK activation” value in the data set on p38 MAPK (SMC exposed to the cGMP analogue) is recorded as “activated”. In the data set on mouse SMC (SMC derived from p21-/- mice), the “Suppression of proliferation by the cGMP analogue” value is “impaired”. In addition, the SMC proliferation result in the data set with mouse SMC (wild type SMC exposed to the cGMP analogue) is given as “suppressed”. The p21Cip1 expression result in the data set on p21Cip1 (SMC exposed to the cGMP analogue, comparably to CO) is “increased”.
